Where “and” joins values, the source holds several entries; their conditions need not be identical. Identical values can stand only once. ± gives the expanded uncertainty stated by the source.
Settings: 298.15 K, Liquid, Vibrating tube method

For `CCCCC(CC)COP(=O)(O)OCC(CC)CCCC` (configuration not stated) [bis(2-ethylhexyl) hydrogen phosphate], the mass density (101 kPa) was 971 ± 2 kg/m3 and 970.5 ± 2 kg/m3 and the mass density (101.33 kPa) was 969.1 ± 0.6 kg/m3.

Source: the NIST ThermoML archive (doi:10.1021/acs.jced.8b00487)
